Test results published in ChEMBL document CHEMBL1201862, “PubChem BioAssay data set” (2004).
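All cell lines were grown in 96-well plates and treated with compound for 48 hours. GI50 marks 50% less growth.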 The source made the active and inactive calls. Cut-off read from the data, not from the text of the source: active = GI50 up to about 1.1 µM and inactive = higher.

Key:
Assay in all cases: NCI anticancer screen, dose series, 48 h
[1] = tested on: SR
[2] = tested on: T47D
[3] = tested on: CCRF-CEM
[4] = tested on: SF-268
[5] = tested on: CAKI-1
[6] = tested on: K562
[7] = tested on: MDA-MB-435
[8] = tested on: 786-0
[9] = tested on: HCC 2998
[10] = tested on: SNB-19
[11] = tested on: UACC-257
[12] = tested on: ACHN
[13] = tested on: MOLT-4
[14] = tested on: M14
[15] = tested on: HL-60
[16] = tested on: NCI/ADR-RES
[17] = tested on: HT-29
[18] = tested on: SK-MEL-2
[19] = tested on: SK-OV-3
[20] = tested on: UO-31
[21] = tested on: COLO 205
[22] = tested on: SK-MEL-28
[23] = tested on: Hs-578T
[24] = tested on: NCI-H23
[25] = tested on: HCT-116
[26] = tested on: RPMI-8226
[27] = tested on: U-251
[28] = tested on: A498
[29] = tested on: RXF 393
[30] = tested on: SF-539
[31] = tested on: SNB-75
[32] = tested on: OVCAR-5
[33] = tested on: BT-549
[34] = tested on: IGROV-1
[35] = tested on: NCI-H522
[36] = tested on: HCT-15
[37] = tested on: Malme-3M
[38] = tested on: DU-145
[39] = tested on: MDA-MB-231
[40] = tested on: HOP-62
[41] = tested on: SK-MEL-5
[42] = tested on: OVCAR-3
[43] = tested on: SN12C
[44] = tested on: UACC-62
[45] = tested on: OVCAR-4
[46] = tested on: EKVX
[47] = tested on: SF-295
[48] = tested on: TK-10
[49] = tested on: KM12
[50] = tested on: NCI-H226
[51] = tested on: A549
[52] = tested on: OVCAR-8
[53] = tested on: SW-620
[54] = tested on: PC-3
[55] = tested on: MCF7
[56] = tested on: LOX IMVI
[57] = tested on: NCI-H460

SMILES: Cc1ccccc1NC(=O)NC(Oc1ccccc1)(C(F)(F)F)C(F)(F)F
- GI50 [1]: > 100 µM (inactive)
- GI50 [2]: > 100 µM (inactive)
- GI50 [3]: > 100 µM (inactive)
- GI50 [4]: > 100 µM (inactive)
- GI50 [5]: 22.4 µM (inactive)
- GI50 [6]: > 100 µM (inactive)
- GI50 [7]: > 100 µM (inactive)
- GI50 [8]: > 100 µM (inactive)
- GI50 [9]: > 100 µM (inactive)
- GI50 [10]: > 100 µM (inactive)
- GI50 [11]: > 100 µM (inactive)
- GI50 [12]: > 100 µM (inactive)
- GI50 [13]: > 100 µM (inactive)
- GI50 [14]: > 100 µM (inactive)
- GI50 [15]: > 100 µM (inactive)
- GI50 [16]: > 100 µM (inactive)
- GI50 [17]: > 100 µM (inactive)
- GI50 [18]: > 100 µM (inactive)
- GI50 [19]: > 100 µM (inactive)
- GI50 [20]: > 100 µM (inactive)
- GI50 [21]: > 100 µM (inactive)
- GI50 [22]: > 100 µM (inactive)
- GI50 [23]: > 100 µM (inactive)
- GI50 [24]: > 100 µM (inactive)
- GI50 [25]: > 100 µM (inactive)
- GI50 [26]: > 100 µM (inactive)
- GI50 [27]: > 100 µM (inactive)
- GI50 [28]: > 100 µM (inactive)
- GI50 [29]: 73.1 µM (inactive)
- GI50 [30]: > 100 µM (inactive)
- GI50 [31]: > 100 µM (inactive)
- GI50 [32]: > 100 µM (inactive)
- GI50 [33]: > 100 µM (inactive)
- GI50 [34]: > 100 µM (inactive)

SMILES: N=C(N)Nc1ccc(CC(N)C(=O)NCC(=O)C(CC(=O)O)c2ncc(NC(=O)C(F)(F)F)o2)cc1 (configuration not stated)
- GI50 [35]: > 25 µM (inactive)
- GI50 [2]: > 25 µM (inactive)
- GI50 [36]: > 25 µM
- GI50 [3]: > 25 µM (inactive)
- GI50 [37]: > 25 µM (inactive)
- GI50 [38]: > 25 µM (inactive)
- GI50 [39]: > 25 µM (inactive)
- GI50 [4]: > 25 µM (inactive)
- GI50 [5]: > 25 µM (inactive)
- GI50 [40]: > 25 µM (inactive)
- GI50 [41]: > 25 µM (inactive)
- GI50 [7]: > 25 µM (inactive)
- GI50 [8]: > 25 µM (inactive)
- GI50 [42]: > 25 µM (inactive)
- GI50 [43]: 9.27 µM (inactive)
- GI50 [44]: > 25 µM (inactive)
- GI50 [45]: > 25 µM (inactive)
- GI50 [46]: > 25 µM (inactive)
- GI50 [9]: > 25 µM (inactive)
- GI50 [11]: > 25 µM (inactive)
- GI50 [47]: > 25 µM (inactive)
- GI50 [48]: > 25 µM (inactive)
- GI50 [12]: > 25 µM (inactive)
- GI50 [14]: > 25 µM (inactive)
- GI50 [49]: > 25 µM (inactive)
- GI50 [15]: > 25 µM (inactive)
- GI50 [50]: > 25 µM (inactive)
- GI50 [16]: > 25 µM (inactive)
- GI50 [17]: > 25 µM (inactive)
- GI50 [51]: > 25 µM (inactive)
- GI50 [18]: > 25 µM (inactive)
- GI50 [52]: > 25 µM (inactive)
- GI50 [19]: > 25 µM (inactive)
- GI50 [20]: > 25 µM (inactive)
- GI50 [53]: > 25 µM (inactive)
- GI50 [21]: > 25 µM (inactive)
- GI50 [22]: > 25 µM (inactive)
- GI50 [23]: > 25 µM (inactive)
- GI50 [24]: > 25 µM (inactive)
- GI50 [54]: > 25 µM (inactive)
- GI50 [55]: 18.4 µM (inactive)
- GI50 [25]: > 25 µM (inactive)
- GI50 [26]: > 25 µM (inactive)
- GI50 [27]: > 25 µM (inactive)
- GI50 [56]: > 25 µM (inactive)
- GI50 [28]: > 25 µM (inactive)
- GI50 [57]: > 25 µM (inactive)
- GI50 [29]: > 25 µM (inactive)
- GI50 [30]: > 25 µM (inactive)
- GI50 [31]: > 25 µM (inactive)
- GI50 [32]: > 25 µM (inactive)
- GI50 [33]: > 25 µM (inactive)
- GI50 [34]: > 25 µM (inactive)
